Experimental data: patent US11344601B2, “Tumor microenvironment-related target TAK1 and application thereof in inhibition of tumor” (Shanghai Institutes for Biological Sciences, Chinese …, priority 2017, dated 2022)

Columns and labels:
[1] = tested on: prostate-derived stromal cell line PSC27 and epithelial cancer cell line PC3 xenograft tumors; assay: Preclinical chemotherapy trial, subcutaneous PC3/PSC27 tissue-recombinant tumors, terminal tumor volume; type: in vivo, ICR-SCID mice
Method: All experimental mouse experiments were carried out in strict accordance with the relevant regulations of the Institutional animal care and use committee (IACUC) of the shanghai Institute of Life Sciences of the Chinese Academy of Sciences. ICR-SCID mice at an age of about 6 weeks (about 25 g in body weight) were used in this patent-related animal experiment. Stromal cells PSC27 and epithelial cells were mixed at a ratio of 1:4, with each implant containing 1.25×10^6 cells for tissue recombination. The transplant tumor was implanted into mice subcutaneously, and the animals were euthanized at the end of Week 8 after transplantation. The tumor volume was calculated according to the following formula: V=(π/6)×((l+w)/2)^3 (V, volume; l, length; w, width). Similarly, lung and breast cancer xenograft tumors were formed by tissue recombination with A549 (non-small cell lung cancer cell line) and W138 (lung fibroblast line), MDA-MB-231 (triple negative breast cancer cell line) and HBF1203 (breast fibroblast line), respectively.
In the preclinical chemotherapy trial, mice subcutaneously transplanted with tumors were fed standard experimental diet. After 2 weeks, the chemotherapeutics mitoxantrone (dose of 0.2 mg/kg) and/or SASP inhibitors (500 μl, dose of 10 mg/kg, RAD001, SB203580 and 5Z-7 were purchased from Tocris; LYTAK, purchased from Lilly Co ((Indianapolis, Ind.), 5 mg/kg) were administrated intraperitoneally. The timepoint was the first day of Week 3, 5, 7, and the whole course of treatment was composed of three cycles of administration, each cycle lasted for 2 weeks. After the course of treatment, mouse […] was collected for tumor measurement and histological analysis. Each mouse received cumulatively 0.6 mg mitoxantrone/kg body weight and 30 mg SASP inhibitor/kg body (15 mg/kg body weight for LYTAK1). Mice xenografted with lung cancer and breast cancer tumor received bleomycin (totally 0.3 mg/kg) and doxorubicin (totally 0.2 mg/kg), respectively. The timepoints and frequency were same as the administration of mitoxantrone. The chemotherapeutic trial was performed until the end of Week 8, and the mice were dissected immediately after death. The transplant tumors were collected and used for analysis in a pathological system.
In order to simulate clinical conditions as much as possible, the present inventor inoculated the subcutaneous site of immunodeficient mice with an admixture of prostate-derived stromal cell line PSC27 and epithelial cancer cell line PC3. The mice subsequently underwent a regimen of 8-week preclinical chemotherapy, which included three single- or double-drug treatments based on a series of pre-experimental data (FIGS. 64 and 65). In the absence of stromal cells, PC3 cells were still able to form tumors under screening pressure caused by chemotherapeutics, though their volumes were smaller than that generated in the case of concurrent inoculation of stromal cells and cancer cells. Such difference also objectively confirmed the tumor-promoting effect of the microenvironment (FIG. 66).

p38MAPK, JNK, ATM = assay: Western blot of JNK, p38MAPK and ATM phosphorylation in damaged stromal cells; type: cell-based, human; conditions: Day 7 after bleomycin and/or 5Z-7
Method: The nitrocellulose filter membrane was blocked at room temperature for 1 h in the blocking solution (TBST containing 5% skim milk powder (0.1% Tween-20 in TBS)), incubated overnight at 4° C. in a primary antibody solution, rinsed at TBST room temperature for 3 times, each for 2 min. The corresponding secondary antibody conjugated with HRP prepared with the blocking solution was added, the filter membrane was incubated at room temperature for 0.5 h. The filter membrane was rinsed with PBST at room temperature for 3 times, each for 2 min.

COc1cc(O)c2c(c1)/C=C/C[C@H](O)[C@H](O)C(=O)/C=C\C[C@H](C)OC2=O [5Z-7, 5z-7-oxozeaenol]
effect on tumor growth ([1]; TAK1 inhibitor alone): does not appear to alter tumor growth trends
further decrease in terminal tumor volume ([1]; inhibitor combined with mitoxantrone (MIT) vs mitoxantrone alone (group 8 vs group 6), end of Week 8): 60%
phosphorylation of JNK and p38MAPK (p38MAPK, JNK, ATM): decreased significantly
phosphorylation status of ATM stimulated by DNA damage (p38MAPK, JNK, ATM): does not depend on whether TAK1 activity is inhibited
